Where “and” joins values, the source holds several entries; their conditions need not be identical. Equal values may be shown once.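 Cells were grown in 96-well plates and exposed to each compound for 48 hours at five concentrations; endpoints were interpolated linearly between bracketing concentrations, or set to the highest concentration if not reached. The concentration for 50% growth inhibition is given as GI50. At the TGI there is no net growth.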
Legend:
Assay in all cases: NCI anticancer screen, dose series, 48 h
HT29 colon = system: HT29 colon
MCF7 breast = system: MCF7 breast
SK-MEL-2 melanoma = system: SK-MEL-2 melanoma
KM12 colon = system: KM12 colon
EKVX NSCLC = system: EKVX NSCLC
OVCAR-4 ovarian = system: OVCAR-4 ovarian
SNB-19 CNS = system: SNB-19 CNS
MOLT-4 leukemia = system: MOLT-4 leukemia
HOP-92 NSCLC = system: HOP-92 NSCLC
UO-31 renal = system: UO-31 renal

SMILES | GI50 (HT29 colon) | TGI (HT29 colon) | GI50 (MCF7 breast) [µM] | TGI (MCF7 breast) | GI50 (SK-MEL-2 melanoma) [µM] | TGI (SK-MEL-2 melanoma) | GI50 (KM12 colon) [µM] | TGI (KM12 colon) | GI50 (EKVX NSCLC) | TGI (EKVX NSCLC) | TGI (OVCAR-4 ovarian) | GI50 (SNB-19 CNS) | TGI (SNB-19 CNS) | TGI (MOLT-4 leukemia) | TGI (HOP-92 NSCLC) | TGI (UO-31 renal)
c1ccc(CNC2CC(NCc3ccccn3)CC(NCc3ccccn3)C2)nc1 (stereo unspecified) | 3.19 µM and 8.17 µM and 1.96 µM | 14.5 µM and 25 µM and 3.81 µM | 1.89 | 6.31 µM and 8.62 µM and 3.65 µM | 3.4 | 6.86 µM and 11.5 µM and 12.2 µM | 2.05 | 3.8 µM and 6 µM and 4.07 µM | 3.87 µM and 7.93 µM and 3.88 µM | 14.7 µM and 25 µM and 16.6 µM | 9.26 µM and 8.37 µM and 40.9 µM | 3.42 µM and 1.64 µM and 1.96 µM | 11.7 µM and 5.64 µM and 3.83 µM | 23.4 µM and 24.8 µM and 33.1 µM | 9.06 µM and 8.87 µM and 15.2 µM | 70.8 µM and > 25 µM and > 100 µM
CC[n+]1cnc(N)c2c(-c3ccc(Cl)cc3)cn(-c3ccc(C)cc3)c21 | – | 17.7 µM | – | 3.35 µM | – | 36 µM | – | 30.7 µM | – | 30.8 µM | 15.6 µM | – | 28.8 µM | 20.5 µM | 24.7 µM | 21.5 µM
O=C(CSCC(=O)N/N=C/c1cc(I)cc(I)c1O)N/N=C/c1cc(I)cc(I)c1O | – | > 100 µM | – | 70.7 µM | – | 47.4 µM | – | 88.2 µM | – | 79.2 µM | > 100 µM | – | 36.6 µM | 29.2 µM | > 100 µM | 44.5 µM
CCc1nn(CN2CCN(C)CC2)c(=S)n1/N=C\c1ccc(-c2ccc([N+](=O)[O-])cc2)o1 | – | > 100 µM | – | > 100 µM | – | > 100 µM | – | > 100 µM | – | > 100 µM | > 100 µM | – | > 100 µM | > 100 µM | > 100 µM | > 100 µM
C=C(C)[C@@]1(O)O[C@H]2C[C@@]3(C)OC(=CC3=O)/C(C)=C\[C@@H]3OC(=O)[C@@]1(C)[C@H]32 | – | 40.9 µM | – | 29.1 µM | – | > 56.3 µM | – | 32.5 µM | – | > 65.1 µM | > 100 µM | – | > 100 µM | 40.4 µM | 41.3 µM | 57 µM
O=C1c2c(F)c(F)c(F)c(F)c2SC2=NCCN12 | – | 8.12 µM | – | 23.5 µM | – | 6.52 µM | – | 25.6 µM | – | 41.4 µM | 8.91 µM | – | 29 µM | 6.7 µM | 9.19 µM | 22.5 µM
Cc1ccc(C2CC(=O)CC(c3ccc(C)cc3)C23C(=O)NC(=O)NC3=O)cc1 (stereo unspecified) | – | > 100 µM | – | > 100 µM | – | > 100 µM | – | > 100 µM | – | > 100 µM | > 100 µM | – | > 100 µM | > 100 µM | > 100 µM | > 100 µM
CCOc1cc2c(cc1O)/C(=N\N)C[C@@H]1[C@@H]2CC[C@]2(C)[C@@H](O)CC[C@@H]12 | – | 30.8 µM | – | > 100 µM | – | 99.5 µM | – | 23 µM | – | > 100 µM | > 100 µM | – | > 100 µM | > 100 µM | 49.9 µM | > 100 µM
CCOc1ccc2nc(NC(=O)C(=O)C(C(=O)c3ccccc3-c3ccccc3)C3OC(=O)c4ccccc43)sc2c1 (stereo unspecified) | – | 43.6 µM | – | > 100 µM | – | 60.1 µM | – | 32.5 µM | – | 47.5 µM | > 100 µM | – | 36.3 µM | 99.6 µM | 46.8 µM | 52.8 µM
CCOC(=O)c1ccc(N=NN(C)C(=O)C(C)N)cc1 (stereo unspecified) | – | > 100 µM | – | > 100 µM | – | > 100 µM | – | > 100 µM | – | > 100 µM | > 100 µM | – | > 100 µM | > 100 µM | > 100 µM | > 100 µM
OCC1OC(c2scc3c(=S)nc[nH]c23)C(O)C1O (stereo unspecified) | – | 70.1 µM | – | 27.3 µM | – | > 65.6 µM | – | > 100 µM | – | > 100 µM | 38.1 µM | – | > 100 µM | 48.4 µM | 6.92 µM | > 100 µM
CNC(=O)c1ccccc1-[s+]1c2ccccc2c(=O)n1C (stereo unspecified) | – | > 100 µM | – | > 100 µM | – | > 100 µM | – | > 100 µM | – | > 100 µM | > 100 µM | – | > 100 µM | > 100 µM | > 100 µM | > 100 µM
O=C(COc1ccc(OCC(=O)N2C(=O)CC(=O)N(c3ccccc3)C2=S)cc1)N1C(=O)CC(=O)N(c2ccccc2)C1=S | – | > 100 µM | – | > 100 µM | – | > 100 µM | – | > 100 µM | – | > 100 µM | > 100 µM | – | > 100 µM | > 100 µM | > 100 µM | > 100 µM
C=C(C)[C@@H]1CC[C@]2(C(=O)O)CC[C@]3(C)[C@H](CC[C@@H]4[C@@]5(C)CC(=O)C(C)(C)[C@@H]5CC[C@]43C)[C@@H]12 | – | > 25 µM | – | > 25 µM | – | 9.71 µM | – | > 25 µM | – | > 25 µM | > 25 µM | – | > 25 µM | 14.5 µM | > 25 µM | 16.4 µM
